Measurements as given in patent US10442931B2, “Dye compound, composition comprising dye compound, and display device using dye compound” (Samsung Display Co. Ltd., priority 2017, dated 2019).

Assays:
[1] = Maximum absorption wavelength band and absorbance, Shimadzu UV-1800 UV-vis spectrophotometer; type: physicochemical
Description: (§1) The maximum absorption wavelength bands and absorbance were measured using Shimadzu UV-1800 UV-vis. Spectrophotometer. Whether having lipid solubility was determined to be lipid soluble when the solubility of the compounds in MEK, PGMEA, cyclo-hexanone, or toluene was 1 wt % or more.

[2] = Whether having lipid solubility (solubility in MEK, PGMEA, cyclo-hexanone, or toluene); type: physicochemical
Description: as §1

Row | Structure (SMILES) | Maximum absorption wavelength band [1] | Whether having lipid solubility [2]
1 | Nc1ccc(/N=N/c2ccc(-c3ccc(-c4ccc(/N=N/c5ccc(N)cc5)cc4)cc3)cc2)cc1 [Compound D110] | 500-600 nm | ∘ (determined to be lipid soluble when the solubility of the compounds in MEK, PGMEA, cyclo-hexanone, or toluene was 1 wt % or more)
2 | CCCCOc1ccc(/N=N/c2ccc(/C=C/c3ccc(/N=N/c4ccc(OCCCC)cc4)cc3)cc2)cc1 [Compound C103] | 400-500 nm | ∘ (determined to be lipid soluble when the solubility of the compounds in MEK, PGMEA, cyclo-hexanone, or toluene was 1 wt % or more)
3 | CCCCN(C)c1ccc(/N=N/c2ccc(N3CCN(c4ccc(/N=N/c5ccc(N(C)CCCC)cc5)cc4)CC3)cc2)cc1 [Compound A133] | 500-600 nm | ∘ (determined to be lipid soluble when the solubility of the compounds in MEK, PGMEA, cyclo-hexanone, or toluene was 1 wt % or more)
4 | CCN(CC)c1ccc(/N=N/c2ncc(-c3cnc(/N=N/c4ccc(N(CC)CC)cc4O)s3)s2)c(O)c1 [Compound B123] | ≥ 600- nm | ∘ (determined to be lipid soluble when the solubility of the compounds in MEK, PGMEA, cyclo-hexanone, or toluene was 1 wt % or more)
5 | CCCCOc1ccc(/N=N/c2ccc(N3CCN(c4ccc(/N=N/c5ccc(OCCCC)cc5)cc4)CC3)cc2)cc1 [Compound A124] | 500-600 nm | ∘ (determined to be lipid soluble when the solubility of the compounds in MEK, PGMEA, cyclo-hexanone, or toluene was 1 wt % or more)
6 | CCCCN(C)c1ccc(/N=N/c2ncc(-c3cnc(/N=N/c4ccc(N(C)CCCC)cc4)s3)s2)cc1 [Compound B117] | ≥ 600- nm | ∘ (determined to be lipid soluble when the solubility of the compounds in MEK, PGMEA, cyclo-hexanone, or toluene was 1 wt % or more)
7 | CCN(CC)c1ccc(/N=N/c2ccc(N3CCN(c4ccc(/N=N/c5ccc(N(CC)CC)cc5O)cc4)CC3)cc2)c(O)c1 [Compound A132] | 500-600 nm | ∘ (determined to be lipid soluble when the solubility of the compounds in MEK, PGMEA, cyclo-hexanone, or toluene was 1 wt % or more)
8 | Cc1c(O)c(/N=N/c2ncc(-c3cnc(/N=N/c4cc5ccc(N)cc5c(C)c4O)s3)s2)cc2ccc(N)cc12 [Compound B127] | ≥ 600- nm | ∘ (determined to be lipid soluble when the solubility of the compounds in MEK, PGMEA, cyclo-hexanone, or toluene was 1 wt % or more)
9 | C=C(C)C(=O)N(CC)c1ccc(/N=N/c2ccc(N3CCN(c4ccc(/N=N/c5ccc(N(CC)C(=O)C(=C)C)cc5C)cc4)CC3)cc2)c(C)c1 [Compound A138] | 500-600 nm | ∘ (determined to be lipid soluble when the solubility of the compounds in MEK, PGMEA, cyclo-hexanone, or toluene was 1 wt % or more)
